Test results as given in PubChem BioAssay (NCI).
Values joined by “and” are separate entries in the source; they are usually repeats but may differ in a detail not shown here. Equal values may be shown once.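 Exposure lasted 48 hours, with cells grown in 96-well plates and compounds tested at five concentrations. Abbreviation: GI50, concentration required for 50% inhibition of growth. TGI denotes the concentration required for complete inhibition of growth.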

Tests used:
Test in all cases: DTP human tumour cell line panel, 48 h
[1] = test system: A498 renal
[2] = test system: HOP-92 NSCLC
[3] = test system: HT29 colon
[4] = test system: MOLT-4 leukemia
[5] = test system: NCI-H522 lung
[6] = test system: NCI/ADR-RES ovarian
[7] = test system: OVCAR-3 ovarian
[8] = test system: RPMI-8226 leukemia
[9] = test system: SNB-19 CNS
[10] = test system: SNB-75 CNS

SMILES	GI50 [1]	TGI [1]	GI50 [2]	TGI [2]	GI50 [3]	TGI [3]	GI50 [4]	TGI [4]	GI50 [5]	TGI [5]	GI50 [6]	TGI [6]	GI50 [7]	TGI [7]	GI50 [8]	TGI [8]	GI50 [9]	TGI [9]	GI50 [10]	TGI [10]
O=C(Nc1ccccc1OC(=O)c1ccccc1)c1ccccc1	12.7 µM	60.1 µM	23.1 µM	> 100 µM	3.76 µM	41.4 µM	3.55 µM	> 100 µM	11.2 µM	77.9 µM	19.2 µM	> 100 µM	3.94 µM	22.2 µM	38.6 µM	> 100 µM	25.1 µM	> 100 µM	7.72 µM	> 100 µM
COc1ccc(Nc2ccnc(N3CCN(c4ccnc5cc(Cl)ccc45)CC3)n2)cc1	0.342 µM	4.17 µM	0.32 µM	4.5 µM	0.542 µM	4.92 µM	1.56 µM	4.37 µM	0.321 µM	1.75 µM	0.769 µM	5.22 µM	0.729 µM	15.4 µM	1.04 µM	3.88 µM	1.48 µM	> 100 µM	1.4 µM	4.82 µM
Oc1cccc2c1NCCC2	2.57 µM	9.07 µM	0.0231 µM	0.066 µM	5.19 µM	> 100 µM	1.27 µM	> 100 µM	0.0937 µM	1.75 µM	1.25 µM	30.4 µM	0.0425 µM	2.59 µM	0.12 µM	> 100 µM	0.164 µM	> 100 µM	0.159 µM	> 100 µM
CN1CCc2nc3sc(C(N)=O)c(N)c3c(-c3cccs3)c2C1	2.58 µM	7.27 µM	3.16 µM	9.16 µM	3.11 µM	70.9 µM	2.89 µM	48.4 µM	2.91 µM	17.8 µM	3.69 µM	98.8 µM	2.16 µM	6.23 µM	4.41 µM	> 100 µM	4.34 µM	> 100 µM	2.81 µM	8.03 µM
Fc1cccc(F)c1C(Nc1nncs1)Nc1nncs1	–	> 100 µM	–	> 100 µM	–	> 100 µM	–	–	–	> 100 µM	–	> 100 µM	–	> 100 µM	–	> 100 µM	–	> 100 µM	–	> 100 µM
CCc1c(C)nc2sc3c(N)ncnc3c2c1C	> 25 µM	> 25 µM	> 25 µM	> 25 µM	> 25 µM	> 25 µM	> 25 µM	> 25 µM	> 25 µM	> 25 µM	> 25 µM	> 25 µM	> 25 µM	> 25 µM	> 25 µM	> 25 µM	> 25 µM	> 25 µM	> 25 µM	> 25 µM
CC(=O)O[C@@H]1C[C@@]2(C)[C@@H]3CC=C4[C@@H](C[C@H](O)C(=O)C4(C)C)[C@]3(C)C(=O)C[C@]2(C)[C@H]1[C@@](C)(O)C(=O)/C=C/C(C)(C)OC(C)=O	–	0.0591 µM	–	6.98 µM	–	> 100 µM	–	> 31.6 µM	–	4.55 µM	–	43.8 µM	–	> 100 µM	–	> 32.2 µM	–	7.38 µM	–	25.3 µM
COc1ccc(/C=C(/C)[N+](=O)[O-])cc1OC	5.13 µM and 4.73 µM	17.2 µM and 16.6 µM	1.78 µM and 2.48 µM	4.52 µM and 5.64 µM	2.62 µM and 1.41 µM	5.92 µM and 4.07 µM	2.94 µM and 3.32 µM	–	0.456 µM and 0.48 µM	1.14 µM and 2.26 µM	2.97 µM and 3.25 µM	9.77 µM and 13.9 µM	1.89 µM and 1.79 µM	3.35 µM and 3.44 µM	0.971 µM and 1.6 µM	3.43 µM and 5.18 µM	6.82 µM and 3.16 µM	20 µM and 12.6 µM	4.71 µM and 3.76 µM	18 µM and 13.9 µM
O=C(CN1N=C(c2ccc(F)cc2)CCC1=O)Nc1nc2ccccc2s1	22.8 µM	> 100 µM	1.31 µM	2.84 µM	3.32 µM	11.5 µM	7.61 µM	31.5 µM	0.187 µM	0.371 µM	> 28.2 µM	> 100 µM	1.99 µM	4.16 µM	2.29 µM	6.17 µM	> 96.7 µM	> 100 µM	17.9 µM	> 100 µM
Oc1cc(-n2cccn2)c(O)cc1-n1cccn1	–	> 92.2 µM	–	39.8 µM	–	56.2 µM	–	61.8 µM	–	26.8 µM	–	> 100 µM	–	40 µM	–	72.1 µM	–	> 82.3 µM	–	> 97.3 µM
COc1cc2ncc3c(nc4sccn43)c2cc1OC	8.01 µM	> 100 µM	15.8 µM	39 µM	69.7 µM	> 100 µM	29.3 µM	> 100 µM	86.1 µM	> 100 µM	93.3 µM	> 100 µM	13.1 µM	42 µM	26.4 µM	89 µM	47.2 µM	> 100 µM	–	–
CSc1ccc(C2=NN(C(C)=O)C(c3ccc(-c4ccc(Cl)cc4)o3)C2)cc1 (configuration not stated)	26 µM	48 µM	22.7 µM	80.1 µM	30.4 µM	> 100 µM	16.4 µM	97.3 µM	18.7 µM	60.3 µM	41.4 µM	> 100 µM	21 µM	80.9 µM	23.8 µM	> 100 µM	> 100 µM	> 100 µM	25.4 µM	> 100 µM
O=C(O)c1ccccc1NC(=S)c1ccccc1	–	> 100 µM	–	44.1 µM	–	> 100 µM	–	> 100 µM	–	39.8 µM	–	> 100 µM	–	> 100 µM	–	75.8 µM	–	> 100 µM	–	–
O=c1c2cc(F)ccc2sc2c(NCCCNCCO)nc3ccccc3c12	1.67 µM	3.32 µM	1.23 µM	3.14 µM	1.75 µM	3.43 µM	–	–	1.87 µM	3.8 µM	1.78 µM	3.44 µM	1.9 µM	3.55 µM	2.08 µM	4.63 µM	1.66 µM	3.14 µM	1.5 µM	2.96 µM
Cn1ccnc1Oc1ccc(Cl)cc1	–	46.4 µM	–	24.4 µM	–	26.6 µM	–	7.01 µM	–	11.6 µM	–	49 µM	–	–	–	2.85 µM	–	> 100 µM	–	51.8 µM
